Assay [1] concerns Blattella germanica strain PAULINIA
Kind of assay: whole plant or invertebrate. Type of assay: in vivo. Particulars: read-out: efficacy (mortality). As to the method: Blattella Germanica Test (BLTTGE Surface Treatment & Contact Assay)
Solvent: Aceton+2000 ppm rapeseed oil methyl ester (RME)
In order to produce a sufficient, active ingredient containing solution it is necessary to solve the test compound in the solvent-mix (acetone at 2 mg/ml/RME 2000 ppm). This solution is pipetted onto a glazed tile and after evaporation of the acetone, adult animals of the species Blattella germanica strain PAULINIA are placed onto the dried surface. The exposure time is 30 minutes.
Mortality in percent (%) is determined 24 hours after contact of the insects to the treated surface. 100% mortality means that all tested insects are dead, whereas 0% means that no insect died.

In assay [2] the test system is Meloidogyne incognita. Kind of assay: Meloidogyne incognita test. Type of assay: in vivo. Particulars: 20 ppm; after 14 days; salad seedlings. Here is the method:
Meloidogyne incognita—Test Solvent: 125.0 parts by weight of acetone To produce a suitable preparation of active compound, 1 part by weight of active compound is mixed with the stated amount of solvent, and the concentrate is diluted with water to the desired concentration. Vessels are filled with sand, a solution of the active ingredient, a suspension containing eggs and larvae of the southern root-knot nematode (Meloidogyne incognita) and salad seeds. The salad seeds germinate and the seedlings grow. Galls develop in the roots. After 14 days the nematicidal activity is determined on the basis of the percentage of gall formation. 100% means no galls were found and 0% means the number of galls found on the roots of the treated plants was equal to that in untreated control plants.

On to `CC(c1ncnn1-c1ccc(C#N)cn1)N(CC1CC1)C(=O)c1cc(Cl)cc(C(F)(F)F)c1` (centres unmarked) [Example I-007], for which the mortality at 20 mg/m2 in assay [1] was 80 to 100%.
Take `C[C@H](NC(=O)c1cc(Cl)cc(C(F)(F)F)c1)c1ncnn1-c1ncc(Cl)cc1F` [Example I-013]: the “nematicidal activity (gall formation)” value in assay [2] came out at 90%.

The values above are taken from US12171229B2, “Heteroaryl-triazole and heteroaryl-tetrazole compounds as pesticides” (BAYER AKTIENGESELLSCHAFT, priority 2018, dated 2024).
